The nature of one data set: in vitro. It is filed as in vitro ADME. On the procedure: (§1) For investigating the impact of protease on blap-6, trypsin and chymotrypsin were chosen as the enzymes to be studied in the experiment. […] Then these samples (including blap-6 as a standard) were detected by high-performance liquid chromatography (HPLC, Waters, Milford, MA, USA) on a C18 column (4.6 mm × 250 mm, Waters, USA). Solvent A was ultrapure water, and solvent B was acetonitrile. The flow rate was 0.5 mL/min, and the detection wavelength was 280 nm. The column was balanced with 95% solvent A in 0-3 min and eluted with 95-40% solvent A in 3-10 min, 40-5% solvent A in 10-15 min, and 5-95% solvent A in 15-20 min. The degradation rate was calculated by the peak area of the HPLC.

In another data set the test system is trypsin. Nature of the data set: in vitro. It is filed as in vitro ADME. On the procedure:
as §1

In the next data set the test system is A. baumannii. Nature of the data set: microbe, parasite or virus in culture. It is filed as cell-based, Acinetobacter baumannii (ATCC 1968). From the text: (§2) These standard strains of Escherichia coli (E. coli, ATCC 8739), Staphylococcus aureus (S. aureus, ATCC 6538), Pseudomonas aeruginosa (P. aeruginosa, ATCC 27853), Acinetobacter baumannii (A. baumannii, ATCC 1968), Candida albicans (ATCC 10231), and the clinical strain of Methicillin-resistant Staphylococcus aureus (MRSA, MRSA-Z) were obtained from Kunming Medical University. The standard strain of C. neoformans (ATCC 32045) was purchased from Shanghai Yingxin Laboratory Co., Ltd. (CAS NO. YXJ50058). Different strains of E. coli, S. aureus, MRSA, P. aeruginosa, and A. baumannii were cultured with shaking at 37 °C in Luria–Bertani (LB) medium. C. neoformans was cultured at 35 °C in Sabouraud Dextrose Agar (SDA) medium according to the manufacturer’s instructions.
(§3) According to Clinical and Laboratory Standards Institute (CLSI) protocols, the minimum inhibitory concentration (MIC) is the minimum drug concentration at which antibiotics inhibit the growth and reproduction of strains. The different strains were grown in their corresponding media at 35 °C or 37 °C until they entered the exponential growth phase. Fluconazole and amphotericin B were used as positive controls, and sterile 0.9% NaCl was used as a negative control. The peptides were diluted to various concentrations in sterile saline. According to 1 OD = 1 × 10^9 CFU/mL, the above bacterial solution was diluted to 2 × 10^5 CFU/mL with the corresponding medium. In advance, 100 μL of normal saline was added to a sterile 96-well plate, and 200 μL of the sample to be tested was added to the first well. The sample to be tested was subjected to double gradient dilution, and then 100 μL of bacterial solution with a concentration of 2 × 10^5 was added to each well. It was cultured at 35 °C or 37 °C for different times. The light absorption value of the bacterial solution at 600 nm was detected by a microplate reader (Epoch Etock, Biotek, Winooski, VT, USA), and the average concentration of the samples in the pores and adjacent pores that could not detect microbial growth was used as the MIC value.

For a further data set, the system named is C. neoformans ATCC 32045. Nature of the data set: Transmission electron microscopy of treated cells. It is filed as cell-based, Cryptococcus neoformans. The conditions noted are these: 1 × MIC (0.81 μM), 12 h, 37 °C. On the procedure:
The suspension of C. neoformans ATCC 32045 was prepared and then centrifuged at 3500 rpm for 5 min. The supernatant was discarded, and sterile normal saline was added for washing. That is, the above operation was repeated three times and re-suspended. […] The positive control, including the concentration of fluconazole and amphotericin, was 1 × MIC. The negative control was added with the same volume of sterile normal saline. After the sample was added to the fungal solution, it was incubated in an incubator at 37 °C for 12 h, and then centrifuged at 1000 rpm for 10 min. The supernatant was discarded, and osmium tetroxide was slowly added along the tube wall for fixation and fixed at 4 °C for 3 h. Gradient ethanol was used for dehydration, infiltration, and embedding. Finally, ultrathin sections were performed. After the above operation, the morphological changes in C. neoformans were observed by TEM (Tecnai G2 Spirit, FEI, Eindhoven, Holland) and photographed.

The next data set deals with C. neoformans. Nature of the data set: microbe, parasite or virus in culture. It is filed as cell-based, Cryptococcus neoformans (ATCC 32045).
Excerpt: as §2, §3

The subject of another data set is MRSA. Briefly: microbe, parasite or virus in culture. Format: cell-based.
Excerpt: as §2, §3

For data set [1], the system named is C. neoformans ATCC 32045 pre-formed biofilm. Briefly: Biofilm eradication (crystal violet). It is filed as cell-based, Cryptococcus neoformans. The conditions noted are these: 1 × MIC, 48 h pre-formed biofilm, 48 h treatment, A600. On the procedure: The single colony of C. neoformans ATCC 32045 was picked and cultured at 180 rpm and 37 °C. After washing with normal saline three times and being resuspended, the concentration of the fungal solution was adjusted to 1 × 10^6 CFU/mL and then added to a 96-well plate. Each well was incubated at 37 °C for 48 h. The fungal solution was discarded and washed three times with PBS for 1 min each time. The sample to be tested was diluted with normal saline to 0.5×, 1×, 2×, 4× and 8 × MIC, and 200 μL was added to the 96-well plate, respectively. Each concentration was set to three replicate wells, and the negative control group was added with the same volume of sterile normal saline. In the positive control group, 10 μM fluconazole and 10 μM amphotericin B were added and incubated at 37 °C for 48 h. After that, the supernatant was discarded and washed three times with sterile PBS for 1 min each time. And then, 99% methanol was added and fixed for 5 min. Methanol was removed and dried under the ultra-clean bench. After staining with 100 μL 0.1% crystal violet for 5 min, wash the plate with PBS, dry, and add 100 μL 95% ethanol. The absorbance at 600 nm was detected by a microplate reader.

Where no end group is shown, it is not given here.

The values below come from PMC11121495, “Blap-6, a Novel Antifungal Peptide from the Chinese Medicinal Beetle Blaps rhynchopetera against Cryptococcus neoformans” (International Journal of Molecular Sciences, 2024).

With KRCRFRIYRWGFPRRRF [blap-6], the half-life at 2.44 mg/mL in the data set “in vitro” (isolated enzyme chymotrypsin) is approximately 5 h; in “in vitro” (isolated enzyme trypsin), approximately 6 h. Also, the metabolised at 1 h, 2.44 mg/mL in the data set “in vitro” (isolated enzyme chymotrypsin) worked out at 19%. For the same sequence, the metabolised at 24 h, 2.44 mg/mL in “in vitro” (isolated enzyme several chymotrypsin trypsin) was determined as 90%. Also, in the data set with trypsin, the degradation with trypsin entry is recorded as “began to degrade”. The values for the MIC in the data set with A. baumannii, in the data set with C. neoformans and against MRSA were 19.54 µM, 0.81 µM and 4.89 µM, respectively. The “cell morphology by TEM” value in the data set with C. neoformans ATCC 32045 was “severe disruption of the structural and cellular morphology”. In addition, in data set [1], the “eradication of pre-formed biofilm” value was “ability to remove pre-formed C. neoformans biofilm”.

As usually defined, the half-life is how long it takes for the measured level to halve. A high value points to slow loss.
